Results taken from US20230295171A1, “FUSED HETEROAROMATIC PYRROLIDINONES” (Calithera Biosciences, Inc., priority 2009, published 2023).

Target: SYK (Homo sapiens (Human), UniProt P43405)
Experiment: SYK inhibition assay (phosphorylation of FAM-labeled SYK-specific substrate, Caliper LC-3000)
Type: biochemical
Conditions: SYK kinase domain (residues 356-635); 5FAM-KKKKEEIYFFFG-NH2 substrate, ATP, 60 min at RT; pIC50 = -log(IC50), IC50 molar
Protocol: SYK protein is prepared from cDNA encoding human spleen tyrosine kinase and is expressed in insect cells using a baculovirus expression vector. […] The recombinant bacmid DNA is isolated and transfected into Sf9 insect cells. Recombinant virus is harvested 72 h after transfection. High titer viral stock is prepared by infecting Sf9 cells at a multiplicity of infection (MOI) of approximately 0.01. A suspension of Sf9 cells (10 L) is infected with recombinant virus (MOI=5) and is incubated in a Wave Bioreactor (GE-Healthcare) for 48 h. The cells are harvested and stored at −80° C.
To purify the expressed protein, the frozen Sf9 cells (10 L) are broken into small (<1 cm) particles and suspended in a lysis buffer (300 mL) containing 20 mM Tris (pH 7.6), 0.25 mM TCEP, 100 mM NaCl, 5% glycerol and a protease inhibitor. The suspension is stirred at RT until completely thawed, lysed an additional 2-4 min on a rotary blade homogenizer, and then centrifuged at 4200 g for 1 h. Following centrifugation, the supernatant is poured through cheese cloth and combined with a nickel chelating resin (Probond Resin™, Invitrogen) which is pre-equilibrated in a wash buffer containing 10 mM Tris (pH 7.6), 0.25 mM TCEP, 300 mM NaCl, 5% glycerol, and 20 mM imidazole. The mixture is agitated for 3 h in a cold room and then centrifuged at 900 g for 10 min. The resin is dispersed in wash buffer (50 mL), centrifuged for 10 min at 900 g, re-dispersed in a small amount of wash buffer (5 mL), and then pour into a disposable Poly-Prep chromatography column, through which wash buffer is passed by gravity until no protein is observed in coomassie buffer (about 120 mL of wash buffer). An elution buffer (30 mL) containing 10 mM HEPES (pH 7.4), 150 mM NaCl, 10% glycerol, 5 mM DTT, and 400 mM imidazole is used to elute the SYK protein from the resin. The eluate is concentrated (5 mL) and further purified on a Superdex 200 column (1.2 mL/min for 160 min, 10 mM HEPES (pH 7.4), 10 mM NaCl, 10 mM MgCl, 0.1 mM EDTA, and 0.25 mM TCEP). The chromatographed fractions are run on SDS-PAGE and the requisite fractions are pooled and concentrated. Final delivery buffer is 10 mM HEPES (pH 7.4), 10 mM Methione, 150 mM NaCl, 10% glycerol, 5 mM DTT.
SYK inhibition is determined using a black 384 well plate format in buffer containing 50 mM HEPES, 10 mM NaCl, 10 mM MgCl2, 0.2 mM EDTA, 0.01% EDA (Brij® 35), 1 mM DTT, and 0.1 mg/ml BSA at pH 7.3. Each test compound is prepared in DMSO using 2-fold serial dilutions for 11 data points, which are added to the buffer so that each dilution contains 3% DMSO. […] The reaction mixture is incubated at RT for 60 min, and quenched by adding 50 mM Hepes, 30 mM EDTA, 0.1% Triton X-100 (pH 7.3). To quantify the fluorescent-labeled substrate and product following reaction, the test plate is loaded on a Caliper LC-3000, which measures percent of conversion by microfluidic-based separation. Corresponding IC50 values are calculated by non-linear curve fitting of the compound concentrations and percent of inhibition to the standard IC50 equation and reported as pIC50, i.e., −log(IC50), where IC50 is molar concentration.

SMILES	SYK Inhibition (pIC50)
Cc1cccc(Nc2nc(N[C@@H]3CCCC[C@@H]3O)nc3c2C(=O)NC3)c1 (relative stereo) [Example 11, cis-2-(2-Hydroxycyclohexylamino)-4-(m-tolylamino)-6,7-dihydro-5H-pyrrolo[3,4-d]pyrimidin-5-one]	5.9
Cc1cccc(Nc2nc(N[C@@H]3COC[C@@H]3N)cc3c2C(=O)NC3)c1 (relative stereo) [Example 58, 6-(cis-4-Aminotetrahydrofuran-3-ylamino)-4-(m-tolylamino)-1H-pyrrolo[3,4-c]pyridin-3(2H)-one]	5.8
Cn1cc(-c2nc(N[C@@H]3CC(F)(F)C[C@@H]3N)c(F)c3c2C(=O)NC3)cn1 (relative stereo) [Example 66, 6-(cis-2-Amino-4,4-difluorocyclopentylamino)-7-fluoro-4-(1-methyl-1H-pyrazol-4-yl)-1H-pyrrolo[3,4-c]pyridin-3(2H)-one]	6.3
Cn1cc(-c2nc(N[C@@H]3CCCC(F)(F)[C@@H]3N)c(F)c3c2C(=O)NC3)cn1 (relative stereo) [Example 67, 6-(cis-2-Amino-3,3-difluorocyclohexylamino)-7-fluoro-4-(1-methyl-1H-pyrazol-4-yl)-1H-pyrrolo[3,4-c]pyridin-3(2H)-one]	7.4
N[C@@H]1[C@H](Nc2nc(-c3cnn(C(F)F)c3)c3c(c2F)CNC3=O)CCCC1(F)F (relative stereo) [Example 68, 6-(cis-2-Amino-3,3-difluorocyclohexylamino)-4-(1-(difluoromethyl)-1H-pyrazol-4-yl)-7-fluoro-1H-pyrrolo[3,4-c]pyridin-3(2H)-one]	7.0
N[C@@H]1[C@H](Nc2nc(-c3cnn(C4CC4)c3)c3c(c2F)CNC3=O)CCCC1(F)F (relative stereo) [Example 69, 6-(cis-2-amino-3,3-difluorocyclohexylamino)-4-(1-cyclopropyl-1H-pyrazol-4-yl)-7-fluoro-1H-pyrrolo[3,4-c]pyridin-3(2H)-one]	6.8
Cc1cccc(Nc2nc(N[C@H]3COCC[C@H]3N)cc3c2C(=O)NC3)c1 [Example 86, 6-((3R,4R)-4-Aminotetrahydro-2H-pyran-3-ylamino)-4-(m-tolylamino)-1H-pyrrolo[3,4-c]pyridin-3(2H)-one]	5.6
